Measurements taken from paper PMC8508980, “Design, Synthesis and Anticancer Profile of New 4-(1H-benzo[d]imidazol-1-yl)pyrimidin-2-amine-Linked Sulfonamide Derivatives with V600EBRAF Inhibitory Effect” (International Journal of Molecular Sciences, 2021).

Key:
[1] = system: SK-MEL-5 cells; experiment: Antiproliferative MTT assay; assay type: cell-based; details: Homo sapiens, 48 h, mean ± S.D. of two experiments
Description: (§1) The effect of final target compounds over A375 and SK-MEL-5 was performed using reported procedures (detailed procedure is located in the Supplementary Information page 51s). […]
(§2) Evaluation of the Antiproliferative Activity Against A375 and SK-MEL-5
(§3) A375 and SK-MEL-5 cells were purchased from American Type Culture Collection (ATCC, Ro ckv ille, MD, USA) and maintained in Dulbecco’s modified eagle medium (DMEM, Welgene, Daegu, Republic of Korea) supplemented with 10% fetal bovine serum (FBS, Welgene, Daegu, Republic of Korea) and 1% penicillin/streptomycin (Welgene, Daegu, Republic of Korea) in a hu midified atmo sphere with 5% CO2 at 37 °C. Both cells were taken from culture substrate with 0.05% trypsin-0.02% EDTA and plated at a density of 5 × 10^3 cells/well in 96 well plates and then incubated at 37 °C fo r 24 h in a hu midified atmo sphere with 5% CO2 prior to treatment with various concentrations (3-fold serial dilution, 12 points) of the tested compounds. The cells were incubated for 48 h after treatment with the test compounds. The cell viability was assessed by the conventional 3-(4,5-dimethylthiazol-2-yl)-2,5-diphenyltetrazolium bromide (MTT) reduction assay. MTT assays were carried out with CellTiter 96® (Promega) according to the manufacturer’s instructions. The absorbance at 590 nm was recorded using EnVision 2103 (Perkin Elmer; Bo ston , MA, USA). The IC50 values were calculated using GraphPad Prism 4.0

[2] = system: A375 cells; experiment: Antiproliferative MTT assay; assay type: cell-based; details: Homo sapiens, A-375, 48 h, mean ± S.D. of two experiments
Description: as §1, §2, §3

SMILES: CNC(=O)c1cc(Oc2ccc(NC(=O)Nc3ccc(Cl)c(C(F)(F)F)c3)cc2)ccn1 [Sorafenib, reference compound]
- IC50 [1]: 9.22 ± 0.81 µM
- IC50 [2]: 5.25 ± 0.74 µM
